Tests used:
[1] = molecular target: CYP3A4 (Homo sapiens, UniProt P08684)
[2] = molecular target: human CYP2C19 (Homo sapiens, UniProt P33261)
[3] = molecular target: human CYP2C9 (Homo sapiens, UniProt P11712)
[4] = molecular target: Photinus pyralis (firefly) luciferase (Photinus pyralis, UniProt P08659); experiment: biochemical; assay type: biochemical; settings: for IC50: read-out: Luciferase IC50 (half-maximal inhibitory concentration)
[5] = molecular target: T1, human CYP1A2 (Homo sapiens, UniProt P05177)
T1 sequence (P05177 1-516): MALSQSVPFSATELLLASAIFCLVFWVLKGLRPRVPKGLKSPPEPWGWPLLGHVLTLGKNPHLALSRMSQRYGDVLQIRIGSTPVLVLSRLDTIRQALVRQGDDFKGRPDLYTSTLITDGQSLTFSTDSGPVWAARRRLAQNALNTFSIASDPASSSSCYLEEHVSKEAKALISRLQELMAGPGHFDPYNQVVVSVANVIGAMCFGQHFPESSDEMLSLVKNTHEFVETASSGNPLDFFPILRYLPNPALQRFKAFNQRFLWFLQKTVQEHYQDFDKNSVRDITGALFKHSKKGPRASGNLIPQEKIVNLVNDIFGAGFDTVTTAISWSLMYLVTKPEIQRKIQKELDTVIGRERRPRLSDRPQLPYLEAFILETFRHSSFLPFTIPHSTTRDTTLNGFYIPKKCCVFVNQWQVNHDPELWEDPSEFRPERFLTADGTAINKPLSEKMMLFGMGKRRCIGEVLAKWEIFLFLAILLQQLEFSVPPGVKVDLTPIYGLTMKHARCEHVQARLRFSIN

[6] = molecular target: human CYP2D6 (Homo sapiens, UniProt P10635)
Sequence of human CYP2D6 (P10635 whole entry): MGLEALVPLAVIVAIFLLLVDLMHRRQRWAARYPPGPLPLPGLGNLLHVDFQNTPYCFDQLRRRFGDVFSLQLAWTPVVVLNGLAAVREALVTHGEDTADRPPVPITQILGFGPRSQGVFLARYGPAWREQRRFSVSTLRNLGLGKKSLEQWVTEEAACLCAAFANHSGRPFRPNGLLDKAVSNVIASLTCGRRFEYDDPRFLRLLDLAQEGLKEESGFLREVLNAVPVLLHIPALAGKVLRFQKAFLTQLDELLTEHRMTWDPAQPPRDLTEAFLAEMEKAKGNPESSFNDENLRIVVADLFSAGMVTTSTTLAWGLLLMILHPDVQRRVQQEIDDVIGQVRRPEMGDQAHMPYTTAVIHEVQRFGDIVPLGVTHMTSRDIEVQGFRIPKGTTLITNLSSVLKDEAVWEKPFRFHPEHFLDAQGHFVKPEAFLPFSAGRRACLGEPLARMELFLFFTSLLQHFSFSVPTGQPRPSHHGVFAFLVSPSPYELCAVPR

Sequence of CYP3A4 (P08684 whole entry): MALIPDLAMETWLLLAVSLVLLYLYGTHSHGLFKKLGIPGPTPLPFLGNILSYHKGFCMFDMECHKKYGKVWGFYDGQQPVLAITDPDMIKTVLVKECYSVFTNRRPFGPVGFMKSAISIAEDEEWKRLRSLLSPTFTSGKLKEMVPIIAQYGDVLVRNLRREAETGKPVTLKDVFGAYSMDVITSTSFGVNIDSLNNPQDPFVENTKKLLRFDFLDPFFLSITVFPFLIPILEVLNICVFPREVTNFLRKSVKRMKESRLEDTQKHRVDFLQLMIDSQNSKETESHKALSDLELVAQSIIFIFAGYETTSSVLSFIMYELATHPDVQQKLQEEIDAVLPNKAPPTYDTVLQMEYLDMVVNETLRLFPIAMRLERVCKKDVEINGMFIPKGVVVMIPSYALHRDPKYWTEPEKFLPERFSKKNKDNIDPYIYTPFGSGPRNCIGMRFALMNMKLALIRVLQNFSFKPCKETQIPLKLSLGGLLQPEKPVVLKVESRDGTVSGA
Sequence of human CYP2C19 (P33261 whole entry): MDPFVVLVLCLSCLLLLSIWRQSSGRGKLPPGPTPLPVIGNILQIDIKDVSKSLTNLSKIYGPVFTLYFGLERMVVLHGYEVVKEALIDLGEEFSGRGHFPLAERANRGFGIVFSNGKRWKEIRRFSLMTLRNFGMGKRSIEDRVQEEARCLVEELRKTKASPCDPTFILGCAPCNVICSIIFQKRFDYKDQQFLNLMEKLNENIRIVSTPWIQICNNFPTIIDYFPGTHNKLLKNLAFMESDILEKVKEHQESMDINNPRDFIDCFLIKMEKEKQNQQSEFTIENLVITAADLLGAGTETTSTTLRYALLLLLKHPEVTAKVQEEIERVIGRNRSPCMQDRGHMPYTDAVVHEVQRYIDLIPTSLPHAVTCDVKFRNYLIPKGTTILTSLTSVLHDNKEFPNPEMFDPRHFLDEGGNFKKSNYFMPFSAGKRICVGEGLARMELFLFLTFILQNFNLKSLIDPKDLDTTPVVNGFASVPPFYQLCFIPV
Sequence of human CYP2C9 (P11712 whole entry): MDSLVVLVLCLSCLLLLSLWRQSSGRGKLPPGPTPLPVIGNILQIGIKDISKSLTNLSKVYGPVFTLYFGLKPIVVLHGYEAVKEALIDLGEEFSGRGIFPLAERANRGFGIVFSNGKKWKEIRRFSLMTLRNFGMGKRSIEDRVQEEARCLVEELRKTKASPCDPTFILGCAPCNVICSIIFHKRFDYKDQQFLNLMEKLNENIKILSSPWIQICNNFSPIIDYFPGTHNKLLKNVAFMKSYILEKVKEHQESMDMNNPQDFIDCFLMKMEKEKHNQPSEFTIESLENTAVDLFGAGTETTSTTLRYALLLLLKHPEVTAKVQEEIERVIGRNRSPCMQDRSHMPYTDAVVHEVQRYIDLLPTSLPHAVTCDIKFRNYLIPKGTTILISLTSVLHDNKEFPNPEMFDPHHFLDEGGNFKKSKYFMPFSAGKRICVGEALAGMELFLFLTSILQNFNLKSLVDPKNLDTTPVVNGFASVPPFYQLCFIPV
Sequence of Photinus pyralis (firefly) luciferase (P08659 whole entry): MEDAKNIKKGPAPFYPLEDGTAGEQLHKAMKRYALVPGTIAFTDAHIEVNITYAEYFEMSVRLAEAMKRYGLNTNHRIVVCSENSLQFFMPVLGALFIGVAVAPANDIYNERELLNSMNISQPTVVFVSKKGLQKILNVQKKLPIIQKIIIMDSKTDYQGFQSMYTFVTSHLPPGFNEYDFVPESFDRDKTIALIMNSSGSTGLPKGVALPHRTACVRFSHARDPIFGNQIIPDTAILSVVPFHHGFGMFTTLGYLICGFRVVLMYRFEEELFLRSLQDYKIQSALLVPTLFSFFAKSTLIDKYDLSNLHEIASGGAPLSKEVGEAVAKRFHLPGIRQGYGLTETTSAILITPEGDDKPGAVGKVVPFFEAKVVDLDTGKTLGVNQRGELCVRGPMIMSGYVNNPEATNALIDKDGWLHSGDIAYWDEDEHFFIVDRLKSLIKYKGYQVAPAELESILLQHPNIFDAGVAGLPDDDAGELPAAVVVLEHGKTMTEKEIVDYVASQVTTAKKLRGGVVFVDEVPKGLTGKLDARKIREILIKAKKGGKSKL

Structure (SMILES)	IC50 [2] [µM]	IC50 [3] [µM]	Luciferase IC50 (half-maximal inhibitory concentration) [4]	IC50 [1] [µM]	IC50 [5] [µM]	IC50 [6] [µM]	CYP3A4 Efficacy (in parenthesis) [1]	CYP2D6 Efficacy [6]	also measured
O=S(=O)([O-])C(F)(F)C(F)(F)C(F)(F)C(F)(F)C(F)(F)C(F)(F)C(F)(F)C(F)(F)F.[K+] [PFOS-K]	39.6	0.61	Inactive	–	–	–	–	–	CYP3A4 IC50 (half-maximal inhibitory concentration) [1]: Inactive; CYP1A2 IC50 (half-maximal inhibitory concentration) [5]: Inactive; CYP2D6 IC50 (half-maximal inhibitory concentration) [6]: Inactive
O=S(=O)(O)C(F)(F)C(F)(F)C(F)(F)C(F)(F)C(F)(F)C(F)(F)C(F)(F)C(F)(F)F [PFOS]	23.4	0.51	–	80	32.3	28.4	–	–	IC50 [4]: 71.3 µM
OC(c1ccc(Cl)cc1)(c1ccc(Cl)cc1)c1cccnc1 [Parinol]	0.08	0.4	Inactive	2.75	38.5	14.2	2.75 ± 0.47 (-69 ± 3) %	–	CYP2C19 Efficacy (in parenthesis) [2]: 0.08 ± 0.01 (-151 ± 12) %; CYP2C9 Efficacy (in parenthesis) [3]: 0.4 ± 0.05 (-109 ± 9) %; CYP1A2 Efficacy (in parenthesis) [5]: 38.47 ± 2.51 (-60 ± 13) %; CYP2D6 Efficacy (in parenthesis) [6]: 14.17 ± 5.05 (-105 ± 7) %
CO/C=C(/C(=O)OC)c1ccccc1COc1cccc(C(F)(F)F)n1 [Picoxystrobin]	0.99	38.4	Inactive	–	32.1	38.4	–	–	AC50 [1]: 2.32 µM; CYP3A4 IC50 (half-maximal inhibitory concentration) [1]: 2.32 ± 0.75 (38 ± 1) µM; AC50 [2]: 0.99 µM; AC50 [3]: 38.4 µM; AC50 [5]: 32.1 µM; AC50 [6]: 38.4 µM
COc1cc2c(cc1OC)C(C(C(=O)N(CCc1ccc(OC)c(OC)c1OC)CCc1ccc(OC)c(OC)c1OC)c1ccccc1)=NCC2.Cl (stereo not drawn) [Pinokalant hydrochloride]	19.6	–	Inactive	0.57	37.3	–	–	9.34 ± 4.19 (-64 ± 10) %	CYP2C9 Efficacy [3]: 11.86 ± 0.77 (-103 ± 7) %
CC(=O)/C=C/c1ccc2c(c1)OCO2 [Piperonal acetone]	14.5	–	–	4.65	0.25	–	–	31 ± 5.28 (-103 ± 9) %	CYP2C9 Efficacy [3]: 8.04 ± 0.92 (-118 ± 10) %; IC50 [4]: 40.3 µM
CC(=O)CCc1ccc2c(c1)OCO2 [Piperonyl acetone]	29.9	–	Inactive	18.5	0.75	–	–	44.96 ± 16.37 (-42 ± 9) %	CYP2C9 Efficacy [3]: 22.26 ± 9.54 (-102 ± 10) %
O=C(NCc1cccnc1)Nc1ccc([N+](=O)[O-])cc1 [Pyrinuron]	3.28	5.43	Inactive	0.93	15.5	44.8	0.93 ± 0.12 (-76 ± 5) %	–	CYP2C19 Efficacy (in parenthesis) [2]: 3.28 ± 1.56 (-135 ± 13) %; CYP2C9 Efficacy (in parenthesis) [3]: 5.43 ± 0.35 (-105 ± 9) %; CYP1A2 Efficacy (in parenthesis) [5]: 15.45 ± 2.63 (-100 ± 0) %; CYP2D6 Efficacy (in parenthesis) [6]: 44.8 ± 15.98 (-64 ± 3) %
C[C@@H]1CN(CCCn2c3ccccc3c3ccccc32)C[C@H](C)N1.Cl.Cl [Rimcazole dihydrochloride]	–	–	–	1.84	10.6	–	–	0.4 ± 0.03 (-102 ± 4) %	CYP2C19 IC50 [2]: Inactive; CYP2C9 IC50 [3]: Inactive; Luciferase IC50 [4]: Inactive
Cn1ccc2cc3c(cc21)CCN3C(=O)Nc1cccnc1 [SB-206553]	–	–	–	3.55	0.07	–	3.55 ± 0.64 (-82 ± 5) %	–	CYP2C19 IC50 (half-maximal inhibitory concentration) [2]: Inactive; CYP2C9 IC50 (half-maximal inhibitory concentration) [3]: Inactive; Luciferase Efficacy (in parenthesis) [4]: 4.77 ± 1.70 (-73 ± 12) %; IC50 [4]: 4.77 µM; CYP1A2 Efficacy (in parenthesis) [5]: 0.07 ± 0.01 (-96 ± 6) %; CYP2D6 IC50 (half-maximal inhibitory concentration) [6]: Inactive
COc1cccc(CCc2ccccc2OCC(CN(C)C)OC(=O)CCC(=O)O)c1.Cl (stereo not drawn) [Sarpogrelate hydrochloride]	36.8	–	Inactive	6.72	16.2	–	–	0.42 ± 0.24 (-101 ± 2) %	CYP2C9 IC50 (half-maximal inhibitory concentration) [3]: Inactive
CC(C)CC(N(C)C)C1(c2ccc(Cl)cc2)CCC1.Cl (stereo not drawn) [Sibutramine hydrochloride]	8.47	–	Inactive	0.94	–	4.24	0.94 ± 0.06 (-73 ± 3) %	–	CYP2C19 Efficacy (in parenthesis) [2]: 8.47 ± 1.44 (-127 ± 8) %; CYP2C9 IC50 (half-maximal inhibitory concentration) [3]: Inactive; CYP1A2 IC50 (half-maximal inhibitory concentration) [5]: Inactive; CYP2D6 Efficacy (in parenthesis) [6]: 4.24 ± 0.72 (-88 ± 6) %
CCNc1nc(Cl)nc(NC(C)(C)C)n1 [Terbutylazine]	31.2	0.62	–	–	10.8	–	–	–	CYP3A4 IC50 [1]: Inactive; Luciferase IC50 [4]: Inactive; CYP2D6 IC50 [6]: Inactive

From article PMC12155096 (International Journal of Molecular Sciences, 2025)
